Reference: PubChem BioAssay (NCI)
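Step 1: Grow cells in 96-well plates. Step 2: Expose to compound for 48 hours at 5 concentrations. Step 3: Interpolate endpoints linearly; if unreached, use highest concentration. TGI is the concentration that stops growth completely.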

How the values were obtained:
Test in all cases: NCI anticancer screen, dose series, 48 h
786-0 renal = system: 786-0 renal
A498 renal = system: A498 renal
A549 NSCLC = system: A549 NSCLC
ACHN renal = system: ACHN renal
CAKI-1 renal = system: CAKI-1 renal
CCRF-CEM leukemia = system: CCRF-CEM leukemia
COLO 205 colon = system: COLO 205 colon
DLD-1 colon = system: DLD-1 colon
DMS 273 small cell lung = system: DMS 273 small cell lung
EKVX NSCLC = system: EKVX NSCLC
HCT-116 colon = system: HCT-116 colon
HCT-15 colon = system: HCT-15 colon
HL-60(TB) leukemia = system: HL-60(TB) leukemia
HOP-18 NSCLC = system: HOP-18 NSCLC
HOP-62 NSCLC = system: HOP-62 NSCLC
HOP-92 NSCLC = system: HOP-92 NSCLC
HT29 colon = system: HT29 colon
IGROV1 ovarian = system: IGROV1 ovarian
K-562 leukemia = system: K-562 leukemia
KM12 colon = system: KM12 colon
KM20L2 colon = system: KM20L2 colon
LOX IMVI melanoma = system: LOX IMVI melanoma
LXFL 529 NSCLC = system: LXFL 529 NSCLC
M14 melanoma = system: M14 melanoma
M19-MEL melanoma = system: M19-MEL melanoma
MALME-3M melanoma = system: MALME-3M melanoma
MOLT-4 leukemia = system: MOLT-4 leukemia
NCI-H226 lung = system: NCI-H226 lung
NCI-H23 lung = system: NCI-H23 lung
NCI-H460 lung = system: NCI-H460 lung
NCI-H522 lung = system: NCI-H522 lung
OVCAR-3 ovarian = system: OVCAR-3 ovarian
OVCAR-4 ovarian = system: OVCAR-4 ovarian
OVCAR-5 ovarian = system: OVCAR-5 ovarian
OVCAR-8 ovarian = system: OVCAR-8 ovarian
RXF 393 renal = system: RXF 393 renal
RXF-631 renal = system: RXF-631 renal
SF-268 CNS = system: SF-268 CNS
SF-295 CNS = system: SF-295 CNS
SF-539 CNS = system: SF-539 CNS
SK-MEL-2 melanoma = system: SK-MEL-2 melanoma
SK-MEL-28 melanoma = system: SK-MEL-28 melanoma
SK-MEL-5 melanoma = system: SK-MEL-5 melanoma
SK-OV-3 ovarian = system: SK-OV-3 ovarian
SN12C renal = system: SN12C renal
SNB-19 CNS = system: SNB-19 CNS
SNB-75 CNS = system: SNB-75 CNS
SNB-78 CNS = system: SNB-78 CNS
SR leukemia = system: SR leukemia
SW-620 colon = system: SW-620 colon
TK-10 renal = system: TK-10 renal
UACC-257 melanoma = system: UACC-257 melanoma
UACC-62 melanoma = system: UACC-62 melanoma
UO-31 renal = system: UO-31 renal
DMS 114 small cell lung = system: DMS 114 small cell lung
HCC-2998 colon = system: HCC-2998 colon
U251 CNS = system: U251 CNS
XF 498 CNS = system: XF 498 CNS

Compound: Cc1ccc(-n2c(O)c(C=N)c(=O)n(-c3ccc(C)cc3)c2=O)cc1
- TGI (786-0 renal): > 100 µM
- TGI (A498 renal): > 100 µM
- TGI (A549 NSCLC): > 100 µM
- TGI (ACHN renal): > 100 µM
- TGI (CAKI-1 renal): > 100 µM
- TGI (CCRF-CEM leukemia): > 100 µM
- TGI (COLO 205 colon): > 100 µM
- TGI (DLD-1 colon): > 100 µM
- TGI (DMS 273 small cell lung): > 100 µM
- TGI (EKVX NSCLC): > 100 µM
- TGI (HCT-116 colon): > 100 µM
- TGI (HCT-15 colon): > 100 µM
- TGI (HL-60(TB) leukemia): > 100 µM
- TGI (HOP-18 NSCLC): > 100 µM
- TGI (HOP-62 NSCLC): > 100 µM
- TGI (HOP-92 NSCLC): 95.9 µM
- TGI (HT29 colon): > 100 µM
- TGI (IGROV1 ovarian): > 100 µM
- TGI (K-562 leukemia): > 100 µM
- TGI (KM12 colon): > 100 µM
- TGI (KM20L2 colon): > 100 µM
- TGI (LOX IMVI melanoma): > 100 µM
- TGI (LXFL 529 NSCLC): > 100 µM
- TGI (M14 melanoma): > 100 µM
- TGI (M19-MEL melanoma): > 100 µM
- TGI (MALME-3M melanoma): > 100 µM
- TGI (MOLT-4 leukemia): > 100 µM
- TGI (NCI-H226 lung): > 100 µM
- TGI (NCI-H23 lung): > 100 µM
- TGI (NCI-H460 lung): > 100 µM
- TGI (NCI-H522 lung): > 100 µM
- TGI (OVCAR-3 ovarian): > 100 µM
- TGI (OVCAR-4 ovarian): > 100 µM
- TGI (OVCAR-5 ovarian): > 100 µM
- TGI (OVCAR-8 ovarian): > 100 µM
- TGI (RXF 393 renal): > 100 µM
- TGI (RXF-631 renal): > 100 µM
- TGI (SF-268 CNS): > 100 µM
- TGI (SF-295 CNS): > 100 µM
- TGI (SF-539 CNS): > 100 µM
- TGI (SK-MEL-2 melanoma): > 100 µM
- TGI (SK-MEL-28 melanoma): > 100 µM
- TGI (SK-MEL-5 melanoma): > 100 µM
- TGI (SK-OV-3 ovarian): 78.8 µM
- TGI (SN12C renal): > 100 µM
- TGI (SNB-19 CNS): > 100 µM
- TGI (SNB-75 CNS): 75.2 µM
- TGI (SNB-78 CNS): > 100 µM
- TGI (SR leukemia): > 100 µM
- TGI (SW-620 colon): > 100 µM
- TGI (TK-10 renal): > 100 µM
- TGI (UACC-257 melanoma): > 100 µM
- TGI (UACC-62 melanoma): > 100 µM
- TGI (UO-31 renal): > 100 µM

Compound: O=C(CCc1nnc2s/c(=C\c3ccccc3[N+](=O)[O-])c(=O)n12)Nc1cc(Cl)c(Cl)cc1Cl
- TGI (786-0 renal): 31.3 µM
- TGI (A498 renal): 53.6 µM
- TGI (A549 NSCLC): > 100 µM
- TGI (ACHN renal): > 100 µM
- TGI (CCRF-CEM leukemia): 82.6 µM
- TGI (COLO 205 colon): > 100 µM
- TGI (DLD-1 colon): 66.6 µM
- TGI (DMS 114 small cell lung): > 100 µM
- TGI (DMS 273 small cell lung): > 100 µM
- TGI (EKVX NSCLC): > 100 µM
- TGI (HCC-2998 colon): > 100 µM
- TGI (HCT-116 colon): 31.4 µM
- TGI (HCT-15 colon): > 100 µM
- TGI (HOP-18 NSCLC): 94.4 µM
- TGI (HOP-62 NSCLC): 64.1 µM
- TGI (HOP-92 NSCLC): 51.2 µM
- TGI (HT29 colon): > 100 µM
- TGI (IGROV1 ovarian): > 100 µM
- TGI (K-562 leukemia): 72 µM
- TGI (KM12 colon): 43.4 µM
- TGI (KM20L2 colon): > 100 µM
- TGI (LOX IMVI melanoma): 46.9 µM
- TGI (LXFL 529 NSCLC): 53.8 µM
- TGI (M14 melanoma): > 100 µM
- TGI (M19-MEL melanoma): > 100 µM
- TGI (MALME-3M melanoma): > 100 µM
- TGI (MOLT-4 leukemia): 71.6 µM
- TGI (NCI-H226 lung): 40.6 µM
- TGI (NCI-H23 lung): > 100 µM
- TGI (NCI-H460 lung): 75.7 µM
- TGI (NCI-H522 lung): > 100 µM
- TGI (OVCAR-3 ovarian): 35.8 µM
- TGI (OVCAR-4 ovarian): 34.6 µM
- TGI (OVCAR-5 ovarian): > 100 µM
- TGI (OVCAR-8 ovarian): 89.9 µM
- TGI (RXF 393 renal): 57.6 µM
- TGI (RXF-631 renal): > 100 µM
- TGI (SF-268 CNS): 78.1 µM
- TGI (SF-295 CNS): 49.5 µM
- TGI (SF-539 CNS): 46 µM
- TGI (SK-MEL-2 melanoma): > 100 µM
- TGI (SK-MEL-28 melanoma): > 100 µM
- TGI (SK-MEL-5 melanoma): > 100 µM
- TGI (SK-OV-3 ovarian): > 100 µM
- TGI (SN12C renal): 63.8 µM
- TGI (SNB-19 CNS): 74.3 µM
- TGI (SNB-75 CNS): 55.8 µM
- TGI (SNB-78 CNS): > 100 µM
- TGI (TK-10 renal): 87.9 µM
- TGI (U251 CNS): 30.8 µM
- TGI (UACC-257 melanoma): > 100 µM
- TGI (UACC-62 melanoma): > 100 µM
- TGI (UO-31 renal): 91.4 µM
- TGI (XF 498 CNS): 58 µM
